Measurements taken from patent US4714699A, “2-tolylmorpholine derivatives and pharmaceutical compositions” (Societe Anonyme Dite: Laboratoire L. Lafon, priority 1983, dated 1987).

How the values were obtained:
[1] = from EP-A-80,940, page 13, lines 6-10; cited from earlier work
β2 = β2 effect in dogs; assay type: in vivo; conditions: intraduodenal, anesthetized dogs
overall behavior in rats = assay type: in vivo, male rats; conditions: 64 mg/kg i.p., rats
Experimental: In the following tests, CRL 40 875, in solution in distilled water, was administered intraperitoneally in a volume of 20 ml/kg to male mice and 5 ml/kg to male rats.
The toxicological and neuropsychopharmacological studies undertaken in accordance with the procedures described above for CRL 40 875 enabled the following observations to be made: […]

[2] = cardiovascular study in dogs; assay type: in vivo
[3] = pretoxicity (LD-O, maximum non-lethal dose); assay type: in vivo, male mice; conditions: intraperitoneally, male mice
β1 = β1 effect in dogs; assay type: in vivo; conditions: intraduodenal, anesthetized dogs
[4] = neuropsychopharmacological study, overall findings; assay type: in vivo, mice, rats; conditions: weak doses where stated
[5] = overall behavior and reactivities in mice; assay type: in vivo, male mice; conditions: mice
[6] = anesthetized dogs, intraduodenal (CRL 40 903: then intravenous)
[7] = intraduodenal, anesthetized dogs

Cc1ccccc1C1CN(C)CCO1 (stereo not shown) [CRL 40 915, 2-o-tolyl-4-methylmorpholine]
variation of sedative effects with dose [1]: no sedation at a given dose, significant sedation at the next highest dose used

CCN1CCOC(O)(c2cccc(C(F)(F)F)c2)C1.Cl (stereo not shown) [CRL 41 092, 2-(m-trifluoromethylphenyl)-2-hydroxy-4-ethylmorpholine hydrochloride]
β2 effect (β2): very slightly β1^- and β2^- | sedation, reactivity to touch and muscular tonus (overall behavior in rats): transistory sedation with a reduction in the reactivity to touch and the muscular tonus | minimal effective dose ([2]; Canis lupus familiaris, anesthetized dogs, intraduodenal (CRL 40 903: then intravenous), read-out: dose as from which femoral flow rate is increased): ≥ 1 mg/kg | effect on blood pressure [2, 6]: tends to increase the blood pressure | effect on the hypertension induced by noradrenaline [2, 6]: increases the hypertension induced by noradrenaline | femoral flow rate ([2]; as from 1 mg/kg intraduodenally, anesthetized dogs): greatly increases the femoral flow rate | vasodilator property ([2]; dog, in vivo): particularly interesting as vasodilators | effect on heart beat [2, 7]: does not modify the heart beat | rectal and skin temperatures [2, 7]: a reduction in the vertebral flow rate and also in the rectal and skin temperatures | vertebral flow rate [2, 7]: a reduction in the vertebral flow rate | femoral flow rate after propanolol ([2]; propanolol injected at the end of the test, anesthetized dogs): remaining above its control value | effect of propanolol on heart beat and femoral flow rate ([2]; propanolol injected at the end of the test, anesthetized dogs, intraduodenal): very slightly reduces the heart beat and femoral flow rate | LD-O (maximum non-lethal dose) [3]: greater than 256 mg/kg | β1 effect (β1): very slightly β1^- | sedative effects [4]: sedative effects | hypothermia ([5]; 32 mg/kg i.p.): moderate hypothermia | duration of sedation ([5]; 128 mg/kg i.p.): 0.5 h | fear reaction, reactivity to touch and muscular tonus ([5]; 128 mg/kg i.p.): a reduction in the fear reaction, the reactivity to touch and the muscular tonus
